Assay results taken from patent US9757408B2 (Hayashibara Co., Ltd., priority 2010, dated 2017).

Key:
[1] = system: IL-1α production from NHEK cells; assay: IL-1α production from NHEK cells irradiated with ultraviolet B (Experiment 17); assay type: cell-based, human; conditions: for IL-1α: NHEK cells, stimulation by ultraviolet rays
Procedure: (§1) “CELLMATRIX TYPE IV”, a product name of collagen for tissue culture commercialized by Nitta Gelatin Inc., Osaka, Japan, which had been diluted with PBS(K-) by 10 times, was previously placed in “FALCON 35-3001”, a product name of 35 mm petri dish commercialized by Becton Dickinson and Company, NJ, USA, in an amount of 1 mL/plate, and then allowed to stand at ambient temperature for 10 min, followed by removing an excessive amount of CELLMATRIX, drying the petri dish in air, and washing it thrice with PBS(K-). […] The cells were cultured at 37° C. in a 5% v/v CO2 incubator. On the 2nd and 4th days after the cell inoculation, the medium was replaced with EpiLife medium free of EDGS (1 mL/plate). On the 5th day after the cell inoculation, the supernatant was removed, and the petri dish was washed twice by adding 1 mL/petri dish of Hanks' balanced salt solution (called “HBSS (−) buffer”, hereinafter). Further, 2 mL/petri dish of HBSS (−) buffer was added to the petri dish which was then placed in the position 15 cm apart from an ultraviolet ray light source and irradiated with 40 mJ/cm^2 of ultraviolet B radiation. […] As an ultraviolet ray light source, “NS-8F”, a light source for actual use commercialized by Sanwa Medical Co., Ltd., Okayama, Japan, equipped with an ultraviolet B radiation lamp was used, and the radiation dose was measured on “UVR-305/365D (II)”, an ultraviolet ray meter commercialized by Topcon Corporation, Tokyo, Japan. TNF-α was assayed by the same method as in Experiment 2. The remaining other cytokines were assayed with an IL-1α assay kit, commercialized by R & D Systems Inc., MN, USA, and an IL-8 assay kit commercialized by BioLegend, CA, USA.

[2] = system: PGE2 production from mouse intraperitoneal macrophages; assay: IC50 for PGE2 production from mouse macrophages, LPS + IFN-γ (Experiment 19); assay type: cell-based; conditions: Mus musculus, Macrophage, 20 h, read-out: IC50 Concentration PGE2
Description: (§2) After completion of the culture, the supernatant in each well was collected and assayed for cytokines and prostaglandin E2 (called “PGE2”, hereinafter) with ELISA.

[3] = system: mice with bacterial shock induced by LPS; assay: LPS bacterial shock mice, survival, ANO, adenosine or inosine i.v. (Experiment 9); assay type: in vivo, BALB/c mice; conditions: LPS 18 mg/kg i.p., 127 mg/kg i.v. simultaneously
Procedure: An LPS specimen derived from E. coli (055:B5), commercialized by Sigma-Aldrich Corporation, St. Louis, Mo. USA, was dissolved in PBS and intraperitoneally administered to all the seven mice in the four groups at a dose of 18 mg/kg body weight. […] Seven mice in the remaining one group were intravenously administered with PBS as a control in a volume of 0.2 mL/head (Experiment group 1). For each group, the survival number of mice was confirmed up to 7 to 43 hours after administering LPS and the survival rate (%) of mice in each group was determined.

NHEK cells [4] = assay: Cytotoxicity (released LDH) of NHEK cells irradiated with ultraviolet B (Experiment 17); assay type: cell-based, human; conditions: NHEK cells, stimulation by ultraviolet rays
[5] = system: TNF-α production from mouse intraperitoneal macrophages; assay: IC50 for TNF-α production from mouse macrophages, LPS + IFN-γ, nucleic acid derivatives (Experiment 19); assay type: cell-based; conditions: Mus musculus, Macrophage, 20 h, read-out: IC50 Concentration TNF-α
Description: as §2

[6] = system: IL-12 production from mouse intraperitoneal macrophages; assay: IC50 for IL-12 production from mouse macrophages, LPS + IFN-γ (Experiment 19); assay type: cell-based; conditions: Mus musculus, Macrophage, 20 h, read-out: IC50 Concentration IL-12
Description: as §2

[7] = system: IL-4 production of spleen cells; assay: IL-4 production of spleen cells stimulated with anti-CD3 antibody, from gel-treated mice (Experiment 16); assay type: in vivo, NC/Nga mice
Procedure: (§3) On Friday of the 6th week of the induction (46th day after initiating the application), all the mice were sacrificed, followed by isolating their spleens and collecting spleen cells in usual manner. […] To each well 2 μg/mL of “Purified Mouse CD3ε Monoclonal Antibody”, a product name of an anti-CD3 antibody, commercialized by Cosmo Bio Co., Ltd., Tokyo, Japan, was added, and the cells were incubated at 37° C. for three days in a 5% v/v CO2 incubator, followed by assaying the levels of cytokines in each supernatant thereof.
(§4) The results are in Table 19 in parallel.

[8] = system: picryl chloride-sensitized mice; assay: Picryl chloride-sensitized mice atopic dermatitis, skin score (Experiment 16); assay type: in vivo, NC/Nga mice
Description: as §4

[9] = system: mouse with severe acute pancreatitis induced by choline-deficient ethionine-added feed; assay: Severe acute pancreatitis induced by choline-deficient ethionine-added feed, survival (Experiment 15); assay type: in vivo, CD1(ICR) mice; conditions: oral 124 mg/kg body weight/shot twice a day
Description: After seven days of a preliminary breeding, the mice were fasted for one day and allowed to freely take a choline-deficient ethionine-added feed, produced by Oriental Yeast Co., Ltd., Tokyo, Japan, for three days from the next day. Thereafter, the mice were fed on normal feed again and then fed on the choline-deficient ethionine-added feed. […] Eight mice in the remaining one group as a control were orally administered through a gastric tube with distilled water twice a day every morning and evening in a liquid volume of 0.2 mL/head/shot from the initiation of fasting. The survival number of mice in each group was macroscopically confirmed up to seven days from the initiation of taking the choline-deficient ethionine-added feed, and the survival rate (%) of mice in each group was determined. The survival rate (%) of mice was determined similarly as in Experiment 1.

NHEK cells [10] = assay: Proliferation of NHEK cells irradiated with ultraviolet rays, fluorescent intensity (Experiment 17); assay type: cell-based, human; conditions: stimulation by ultraviolet rays
Procedure: as §1

[11] = system: IL-6 production of spleen cells; assay: IL-6 production of spleen cells stimulated with anti-CD3 antibody, from gel-treated mice (Experiment 16); assay type: in vivo, NC/Nga mice
Procedure: as §3, §4

[12] = compared to mice applied with gel prepared by adding refined water (Experiment group 1)
[13] = supernatant of spleen cells stimulated with anti-CD3 antibody, picryl chloride-sensitized mice applied with gel

## OC[C@H]1O[C@@H](n2cnc3c(O)ncnc32)[C@H](O)[C@@H]1O [IN, inosine]
[1]; 1 μM
  IL-1α: 246 pg/mL
[1]; 5 μM
  IL-1α: 243 pg/mL
[1]; 10 μM
  IL-1α: 228 pg/mL
[1]; UVB 40 mJ/cm^2, supernatant at six hours
  production of IL-1α from NHEK cells augmented by ultraviolet rays: did not influence
[2]
  IC50: > 200 µM
[3]; 7 hours
  Survival rate (%) of mice, 7 Hours: 100%
[3]; 19 hours
  Survival rate (%) of mice, 19 Hours: 60%
[3]; 26 hours
  Survival rate (%) of mice, 26 Hours: 40%
[3]; 43 hours
  Survival rate (%) of mice, 43 Hours: 20%
NHEK cells [4]; 1 μM
  LDH Activity: 0.34 absorbance
NHEK cells [4]; 5 μM
  LDH Activity: 0.34 absorbance
NHEK cells [4]; 10 μM
  LDH Activity: 0.32 absorbance
[5]
  IC50: > 200 µM
[6]
  IC50: > 200 µM
[7]; [12]
  production level of IL-4 of spleen cells stimulated with the anti-CD3 antibody: showed no difference
[7]; spleen cells stimulated with anti-CD3 antibody, picryl chloride-sensitized mice applied with gel
  Ratio of IL-4/IFN-γ: 0.70
[7]; [13]
  Content of IL-4: 9.3 ng/mL
[8]; gel on dorsal skin twice a day (ANO 14 mg/mL, AN or IN 13 mg/mL, prednisolone 6.7 mg/mL from 3rd induction week), day 21
  Skin score, 21 days after the day of sensitizing with picryl chloride: 0.50
[8]; gel on dorsal skin twice a day (ANO 14 mg/mL, AN or IN 13 mg/mL, prednisolone 6.7 mg/mL), day 24
  Skin score, 24 days after the day of sensitizing with picryl chloride: 0.50
[8]; gel on dorsal skin twice a day (ANO 14 mg/mL, AN or IN 13 mg/mL, prednisolone 6.7 mg/mL), day 28
  Skin score, 28 days after the day of sensitizing with picryl chloride: 2.50
[8]; gel on dorsal skin twice a day (ANO 14 mg/mL, AN or IN 13 mg/mL, prednisolone 6.7 mg/mL), day 31
  Skin score, 31 days after the day of sensitizing with picryl chloride: 3.22
[8]; gel on dorsal skin twice a day (ANO 14 mg/mL, AN or IN 13 mg/mL, prednisolone 6.7 mg/mL), day 35
  Skin score, 35 days after the day of sensitizing with picryl chloride: 5.20
[8]; gel on dorsal skin twice a day (ANO 14 mg/mL, AN or IN 13 mg/mL, prednisolone 6.7 mg/mL), day 39
  Skin score, 39 days after the day of sensitizing with picryl chloride: 5.66
[8]; gel on dorsal skin twice a day (ANO 14 mg/mL, AN or IN 13 mg/mL, prednisolone 6.7 mg/mL), day 42
  Skin score, 42 days after the day of sensitizing with picryl chloride: 6.00
[8]; gel on dorsal skin twice a day (ANO 14 mg/mL, AN or IN 13 mg/mL, prednisolone 6.7 mg/mL), day 45
  Skin score, 45 days after the day of sensitizing with picryl chloride: 5.43
[9]; 48 Hours
  Survival rate (%) of mice, 48 Hours: 100.0%
[9]; 70 Hours
  Survival rate (%) of mice, 70 Hours: 60.0%
[9]; 78 Hours
  Survival rate (%) of mice, 78 Hours: 62.5%
[9]; 94 Hours
  Survival rate (%) of mice, 94 Hours: 50.0%
[9]; 102 Hours
  Survival rate (%) of mice, 102 Hours: 25.0%
[9]; 144 Hours
  Survival rate (%) of mice, 144 Hours: 12.5%
NHEK cells [10]; 1 μM
  Proliferation: 5643 Fluorescent intensity
NHEK cells [10]; 5 μM
  Proliferation: 5611 Fluorescent intensity
NHEK cells [10]; 10 μM
  Proliferation: 5633 Fluorescent intensity
[11]; [12]
  production level of IL-6 of spleen cells stimulated with the anti-CD3 antibody: showed no difference
[11]; [13]
  Content of IL-6: 150 ng/mL
